Results: ChEMBL document CHEMBL1154822, “Synthesis and antiproliferative activity of 7-azaindirubin-3'-oxime, a 7-aza isostere of the natural indirubin pharmacophore” (J Nat Prod, 2009)

Tests used:
Assay type in all cases: functional
NCI-H23 [1] = test: Cytotoxicity against human NCI-H23 cells assessed as cell growth at 100 uM after 1 to 11 days by MTT assay; settings: read-out: Activity
HCT-15 [2] = test: Cytotoxicity against human HCT15 cells assessed as cell growth at 10 uM after 1 to 11 days by MTT assay; settings: read-out: Activity
HOP-62 = test: Cytotoxicity against human HOP62 cells after 1 to 11 days by MTT assay
KM12 [3] = test: Cytotoxicity against human KM12 cells assessed as cell growth at 10 uM after 1 to 11 days by MTT assay; settings: read-out: Activity
ACHN = test: Cytotoxicity against human ACHN cells assessed as cell growth at 10 uM after 1 to 11 days by MTT assay; settings: read-out: Activity
SNB-19 = test: Cytotoxicity against human SNB19 cells after 1 to 11 days by MTT assay
NCI-H23 [4] = test: Cytotoxicity against human NCI-H23 cells after 1 to 11 days by MTT assay
HCC 2998 [5] = test: Cytotoxicity against human HCC2998 cells assessed as cell growth at 1 uM after 1 to 11 days by MTT assay; settings: read-out: Activity
OVCAR-3 [6] = test: Cytotoxicity against human OVCAR-3 cells assessed as cell growth at 1 uM after 1 to 11 days by MTT assay; settings: read-out: Activity
SN12C = test: Cytotoxicity against human SN12C cells assessed as cell growth at 1 mM after 1 to 11 days by MTT assay; settings: read-out: Activity
HCT-116 [7] = test: Cytotoxicity against human HCT116 cells assessed as cell growth at 10 uM after 1 to 11 days by MTT assay; settings: read-out: Activity
KM12 [8] = test: Cytotoxicity against human KM12 cells assessed as cell growth at 100 uM after 1 to 11 days by MTT assay; settings: read-out: Activity
HCT-116 [9] = test: Cytotoxicity against human HCT116 cells assessed as cell growth at 1 mM after 1 to 11 days by MTT assay; settings: read-out: Activity
Malme-3M [10] = test: Cytotoxicity against human MALME-3M cells assessed as cell growth at 10 uM after 1 to 11 days by MTT assay; settings: read-out: Activity
HCT-15 [11] = test: Cytotoxicity against human HCT15 cells assessed as cell growth at 100 uM after 1 to 11 days by MTT assay; settings: read-out: Activity
MDA-MB-468 [12] = test: Cytotoxicity against human MDA-MB-468 cells assessed as cell growth at 1 uM after 1 to 11 days by MTT assay; settings: read-out: Activity
OVCAR-4 = test: Cytotoxicity against human OVCAR4 cells assessed as cell growth at 10 uM after 1 to 11 days by MTT assay; settings: read-out: Activity
LOX IMVI [13] = test: Cytotoxicity against human LOXIMVI cells assessed as cell growth at 1 mM after 1 to 11 days by MTT assay; settings: read-out: Activity
PC-3 = test: Cytotoxicity against human PC3 cells after 1 to 11 days by MTT assay
NCI-H460 = test: Cytotoxicity against human NCI-H460 cells assessed as cell growth at 1 uM after 1 to 11 days by MTT assay; settings: read-out: Activity
786-0 = test: Cytotoxicity against human 786-0 cells assessed as cell growth at 1 uM after 1 to 11 days by MTT assay; settings: read-out: Activity
SR [14] = test: Cytotoxicity against human SR cells assessed as cell growth at 1 mM after 1 to 11 days by MTT assay; settings: read-out: Activity
HL-60(TB) = test: Cytotoxicity against human HL-60(TB) cells assessed as cell growth at 1 uM after 1 to 11 days by MTT assay; settings: read-out: Activity
A498 [15] = test: Cytotoxicity against human A498 cells assessed as cell growth at 100 uM after 1 to 11 days by MTT assay; settings: read-out: Activity
OVCAR-8 = test: Cytotoxicity against human OVCAR8 cells assessed as cell growth at 1 uM after 1 to 11 days by MTT assay; settings: read-out: Activity
A498 [16] = test: Cytotoxicity against human A498 cells assessed as cell growth at 0.1 uM after 1 to 11 days by MTT assay; settings: read-out: Activity
M14 = test: Cytotoxicity against human M14 cells after 1 to 11 days by MTT assay
LOX IMVI [17] = test: Cytotoxicity against human LOXIMVI cells assessed as cell growth at 10 uM after 1 to 11 days by MTT assay; settings: read-out: Activity
DU-145 = test: Cytotoxicity against human DU145 cells assessed as cell growth at 1 mM after 1 to 11 days by MTT assay; settings: read-out: Activity
U-251 = test: Cytotoxicity against human U251 cells after 1 to 11 days by MTT assay
Malme-3M [18] = test: Cytotoxicity against human MALME-3M cells assessed as cell growth at 0.1 uM after 1 to 11 days by MTT assay; settings: read-out: Activity
OVCAR-3 [19] = test: Cytotoxicity against human OVCAR-3 cells assessed as cell growth at 10 uM after 1 to 11 days by MTT assay; settings: read-out: Activity
SR [20] = test: Cytotoxicity against human SR cells assessed as cell growth at 1 uM after 1 to 11 days by MTT assay; settings: read-out: Activity
SW-620 = test: Cytotoxicity against human SW620 cells assessed as cell growth at 10 uM after 1 to 11 days by MTT assay; settings: read-out: Activity
KM12 [21] = test: Cytotoxicity against human KM12 cells assessed as cell growth at 1 mM after 1 to 11 days by MTT assay; settings: read-out: Activity
MDA-MB-468 [22] = test: Cytotoxicity against human MDA-MB-468 cells assessed as cell growth at 0.1 uM after 1 to 11 days by MTT assay; settings: read-out: Activity
SR [23] = test: Cytotoxicity against human SR cells assessed as cell growth at 100 uM after 1 to 11 days by MTT assay; settings: read-out: Activity
NCI-H226 = test: Cytotoxicity against human NCI-H226 cells after 1 to 11 days by MTT assay
SF-268 = test: Cytotoxicity against human SF268 cells assessed as cell growth at 100 uM after 1 to 11 days by MTT assay; settings: read-out: Activity
HCT-116 [24] = test: Cytotoxicity against human HCT116 cells after 1 to 11 days by MTT assay
RXF 393 = test: Cytotoxicity against human […] cells assessed as cell growth at 0.1 uM after 1 to 11 days by MTT assay; settings: read-out: Activity
SF-539 = test: Cytotoxicity against human SF539 cells assessed as cell growth at 10 uM after 1 to 11 days by MTT assay; settings: read-out: Activity
SNB-75 = test: Cytotoxicity against human SNB75 cells assessed as cell growth at 1 mM after 1 to 11 days by MTT assay; settings: read-out: Activity
HCC 2998 [25] = test: Cytotoxicity against human HCC2998 cells assessed as cell growth at 10 uM after 48 hrs by MTT assay; settings: HCC 2998, 48 h, read-out: Activity
[26] = read-out: LC50 (the source's name)

O=C1Nc2ncccc2/C1=C1/Nc2ccccc2/C1=N\O showed a growth at 100 µM (NCI-H23 [1]) of 55%, a growth at 10 µM (HCT-15 [2]) of 80% and a GI50 (HOP-62) of over 100 µM. It also gave a TGI (HOP-62) of over 100 µM, a CC50 (HOP-62; [26]) of over 100 µM and a growth at 10 µM (KM12 [3]) of 45%. It also gave a growth at 10 µM (ACHN) of 72%, a GI50 (SNB-19) of over 100 µM and a TGI (SNB-19) of over 100 µM. For the same compound, the CC50 (SNB-19; [26]) was over 100 µM, the GI50 (NCI-H23 [4]) was over 100 µM and the TGI (NCI-H23 [4]) was over 100 µM. The CC50 (NCI-H23 [4]; [26]) was over 100 µM, the growth at 1 µM (HCC 2998 [5]) was 87% and the growth at 1 µM (OVCAR-3 [6]) was 93%. For the same compound, the growth at 1000 µM (SN12C) was 36%, the growth at 10 µM (HCT-116 [7]) was 108% and the growth at 100 µM (KM12 [8]) was 6%. The growth at 1000 µM (HCT-116 [9]) was 50%, the growth at 10 µM (Malme-3M [10]) was 91% and the growth at 100 µM (HCT-15 [11]) was 27%. The growth at 1 µM (MDA-MB-468 [12]) was 75%, the growth at 10 µM (OVCAR-4) was 96% and the growth at 1000 µM (LOX IMVI [13]) was 30%. It also gave a GI50 (PC-3) of 6.82 µM, a TGI (PC-3) of over 100 µM and a CC50 (PC-3; [26]) of over 100 µM. It also gave a growth at 1 µM (NCI-H460) of 105%, a growth at 1 µM (786-0) of 115% and a growth at 1000 µM (SR [14]) of 26%. The growth at 1 µM (HL-60(TB)) was 99%, the growth at 100 µM (A498 [15]) was 18% and the growth at 1 µM (OVCAR-8) was 85%. It also gave a growth at 0.1 µM (A498 [16]) of 76%, a GI50 (M14) of 7.95 µM and a TGI (M14) of over 100 µM. For the same compound, the CC50 (M14; [26]) was over 100 µM, the growth at 10 µM (LOX IMVI [17]) was 86% and the growth at 1000 µM (DU-145) was 35%. It also gave a GI50 (U-251) of over 100 µM, a TGI (U-251) of over 100 µM and a CC50 (U-251; [26]) of over 100 µM. It also gave a growth at 0.1 µM (Malme-3M [18]) of 94%, a growth at 10 µM (OVCAR-3 [19]) of 80% and a growth at 1 µM (SR [20]) of 89%. For the same compound, the growth at 10 µM (SW-620) was 98%, the growth at 1000 µM (KM12 [21]) was 6% and the growth at 0.1 µM (MDA-MB-468 [22]) was 77%. It also gave a growth at 100 µM (SR [23]) of 29%, a GI50 (NCI-H226) of 1.14 µM and a TGI (NCI-H226) of over 100 µM. It also gave a CC50 (NCI-H226; [26]) of over 100 µM, a growth at 100 µM (SF-268) of 54% and a TGI (HCT-116 [24]) of over 100 µM. The CC50 (HCT-116 [24]; [26]) was over 100 µM, the growth at 0.1 µM (RXF 393) was 93% and the growth at 10 µM (SF-539) was 87%. The growth at 1000 µM (SNB-75) was 19%.
Work on O=C1Nc2ncccc2/C1=C1/Nc2ccccc2C1=O yielded a growth at 10 µM (HCC 2998 [25]) of 25.3%.
